# Like-named read-outs stand apart in the source and are kept apart here. Marks after values point to notes of the source that are not given here.
# What was measured:
# [1] = chromium picolinate: at intakes up to 1000 μg per day; cited from earlier work
# [2] = Chromium absorption in humans based on urinary chromium excretion
# Procedure: Experiments were carried out to investigate the efficacy of chromium-histidine complexes in the absorption process. Chromium was administered in the formulations listed in Table 1 at dosages of 200 μg chromium to three adult males and three females, and absorption during the first 24 hours was measured based on urinary chromium excretion.
# [3] = Stability; type: physicochemical; conditions: aqueous solutions
# [4] = Water solubility; type: physicochemical
# [5] = test system: insulin sensitivity; conditions: 1000 μg daily of supplemental chromium, obese subjects with family history of diabetes; cited from earlier work
# [6] = test system: steroid-induced diabetes; conditions: 600 μg of chromium per day for 2 weeks followed by daily maintenance dose of 200 μg; cited from earlier work
# [7] = test system: hemoglobin A1C; conditions: type 2 diabetes, cited from earlier work
molecule,measurement,setting,value
[Cl][Cr]([Cl])[Cl] [Chromium chloride],Absorption of chromium,[1],approximately 0.4%
same,μGRAMS ABSORBED (chromium absorbed),"[2]; first 24 hours following intake of 200 μg of chromium, based on urinary chromium excretion, 3 adult males and 3 females",0.44 ± 0.07^b μGRAMS
N[C@@H](Cc1c[nH]cn1)C(=O)O.[Cr] [Chromium histidine],Stability,[3],stable in aqueous solutions
same,Absorption level relative to chromium picolinate,"[2]; 200 μg chromium, first 24 hours, urinary chromium excretion",almost twice
same,Water solubility,[4],water-soluble
Chromium picolinate,Insulin sensitivity,[5],improved
same,People whose steroid-induced diabetes improved to acceptable levels,[6],47 of 50
same,Hemoglobin A1C,[7]; 200 μg chromium per day for 4 months,7.5±0.2%
same,Hemoglobin A1C,[7]; 1000 μg of chromium per day for 4 months,6.6±0.1%

# Reference: patent publication US6689383B1, “Chromium-histidine complexes as nutrient supplements” (The United States of America as represented by the …, priority 1999, dated 2004)
